According to patent publication US5532231A, “Antibacterial agent” (priority 1994, dated 1996):

How the values were obtained:
[1] = tested on: Bacillus subtilis; experiment: Antimicrobial spectrum, liquid media, viable cell count; format: cell-based; details: saturating concentrations
Procedure: (§1) Saturated solutions of TA and Focusin were prepared by adding 1.14 μg TA and 7 μg Focusin to 1 ml LB (final conc. of 1% ethanol). About 10^5 bacteria of various strains were then added. The control was bacteria in the same medium with no antibacterial agents. The bacteria were introduced at 37° C. with shaking at 100 rpm. When the control became turbid, viable cell count was performed on LB agar plates. Growth inhibition is presented as percentage of the no antibiotic control.

[2] = tested on: Proteus vulgaris; experiment: as above; format: cell-based; details: saturating concentrations
Procedure: as §1

[3] = tested on: Klebsiella pneumoniae; experiment: as above; format: cell-based; details: saturating concentrations; hospital strain
Procedure: as §1

[4] = tested on: Serratia marcescens; experiment: as above; format: cell-based; details: saturating concentrations
Procedure: as §1

[5] = tested on: tested bacterial strains; experiment: Antimicrobial spectrum, overall; format: cell-based
Procedure: as §1

[6] = tested on: E. coli ESS Kan^r; experiment: Paper disc filter antibiotic assay (zone of inhibition); format: cell-based, Escherichia coli
Procedure: Escherichia coli ESS Kan^r, is a kanamycin resistant strain of E. coli ESS, derived by transducing E. coli ESS with P1:TnV, Kan^r. This strain was used for the standard antibiotic assays.
LB Kan medium was solidified by 1.5% Bacto agar (Difco). For the antibiotic assay, Nutrient Broth agar plates were used. NB medium is 0.8% Nutrient Broth (Difco) containing 0.5% NaCl (Merck). NB was solidified by 1.8% Bacto agar (Difco). The NB plates were overlaid by 3.5 ml NB soft agar (0.9% Bacto agar) mixed with 0.1 ml E. coli ESS Kan^r overnight culture.
Antibiotic activity against E. coli ESS Kan^r was determined by the paper disc filter assay (Leo et al., 1945). Unknown quantities of antibiotic TA or Focusin, dissolved in ethanol, saline or NB were applied to paper disc filters (6 mm diameter; Schleicher and Schull). After allowing the ethanol to evaporate in the hood for about 15 mins, the dry filters were placed on nutrient broth plates which had been overlaid with an overnight culture of E. coli ESS Kan^r as described above.
The diameter of the zone of inhibition was recorded after 18 hours in incubation at 37° C. The concentration of the antibacterial agents were determined from a standard inhibition curve prepared with known quantities of TA and Focusin.

[7] = tested on: E. coli ESS; experiment: Killing effect of the washed treated mouse tissue; format: cell-based, Escherichia coli; details: for Inhibition % by the treated tissue*** / Inhibition % by the treated tissue**: 10 μg Focusin; for Inhibition % by the treated tissue***: after third transfer
Procedure: Focusin was tested in the same manner as that described above (under 8.1) with the exception that the tissues in the test tube were washed four times with a solution of 1 ml sterile saline. Each saline wash was for 1 hour at 37° C. Following incubation, the washing saline solution was added to an exponentially growing cultures of E. coli ESS in a concentration of 10^5 cells/ml.
The cultures with the saline wash were incubated at 37° C. for 6 hours and then viable cell count was performed in order to estimate the amount of killing by the antibacterial agent that were released from the tissues. After the four washes the tissues were transferred to 10^5 E. coli ESS log cultures and were then incubated for 5 hours. The tissues were transferred in this way for three times, each time the percentage of inhibition by the treated tissue was measured by viable count.
The tissues were treated as described in Section 8.2 above.
After the fourth wash, the treated tissues were transferred to E. coli ESS cultures (10^5 cells) in nutrient broth. The culture tubes were then incubated at 37° C. for 6 hours and the extent of growth inhibition was measured by viable cell count. The treated tissues were transferred to E. coli cultures two more times (a total of three times), and each time the percentage of growth inhibition by the treated tissues was checked.

CCCC1OC(=O)C(C)CC(C)CCCCC(=O)CCCC(CC)CCCC(COC)CCC(O)C(O)CC(O)CNC1=O (centres unmarked) [Focusin]
killing [1]: 100%
killing [2]: 90%
killing [3]: 96%
killing [4]: 67%
antibacterial activity spectrum (in words) [5]: broad spectrum antibacterial activity against both Gram-positive and Gram-negative bacteria
activity relative to TA at high concentrations ([6]; high concentrations): 1/10
activity relative to TA at low concentrations ([6]; low concentrations): approximately 1/8
amount giving an inhibition zone of 11 mm ([6]; zone 11 mm, paper disc): 640 ng
amount required to obtain a zone of inhibition of about 2 mm ([6]; zone about 2 mm, paper disc): 60 ng
inhibition by the washed tissues containing bound focusin ([7]; all tissues, first transfer): ≥ 99%
inhibition after the third transfer (in words) ([7]; bladder and eye): no inhibition was observed
Inhibition % by the treated tissue*** ([7]; bladder): 0%
Inhibition % by the treated tissue** ([7]; bladder, first transfer): > 99%
Inhibition % by the treated tissue*** ([7]; eye): 0%
Inhibition % by the treated tissue** ([7]; eye, first transfer): > 99%
Inhibition % by the treated tissue*** ([7]; heart): 98%
Inhibition % by the treated tissue** ([7]; heart, first transfer): 100%
Inhibition % by the treated tissue*** ([7]; intestine): 38%
Inhibition % by the treated tissue** ([7]; intestine, first transfer): 100%
Inhibition % by the treated tissue*** ([7]; kidney): 90%
Inhibition % by the treated tissue** ([7]; kidney, first transfer): 100%
Inhibition % by the treated tissue*** ([7]; liver): 100%
Inhibition % by the treated tissue** ([7]; liver, first transfer): 99%
Inhibition % by the treated tissue*** ([7]; lungs): 17%
Inhibition % by the treated tissue** ([7]; lungs, first transfer): 100%
Inhibition % by the treated tissue*** ([7]; spleen): 98%
Inhibition % by the treated tissue** ([7]; spleen, first transfer): 100%
Inhibition % by the treated tissue*** ([7]; teeth): 91%
Inhibition % by the treated tissue** ([7]; teeth, first transfer): 100%
